This assay concerns oxaliplatin induced hyperalgesia in the mouse. The assay is described as follows: Cold plate test, oxaliplatin induced hyperalgesia in mice. Type of assay: in vivo. The conditions noted are these: for Licking latency, 15 min after treatment / Licking latency, 30 min after treatment / Licking latency, 45 min after treatment / Licking latency, 60 min after treatment: day 14, oxaliplatin-treated mice; for Licking latency, Pre-test (48 hrs after last oxaliplatin adm.): baseline before treatment, oxaliplatin 2.4 mg/kg i.p., mean of 10 mice. As to the method: The acute oral effect of Moringa oleifera L. seeds extract and purified GMG and GMG-ITC on oxaliplatin induced hyperalgesia in mice (Cold plate test) were evaluated.
The method utilized is a modification of that described by Cavalletti et al. (Cavalletti G. et al., Eur. J. Cancer 37(18), 2457, 2001). Oxaliplatin (2.4 mg/kg) was dissolved in 5% glucose solution and administered i.p. for 5 consecutive days every week for 14 days. On day 14, the test products were suspended in 1% CMC and administered orally. Pregabalin was used, in the same experimental conditions, as a reference active compound at the dose of 15 mg/kg s.c. dissolved in saline.
Pain-related behavior (i.e. lifting and licking of the hind paw) were observed and the time (seconds) of the first sign was recorded.

Setting [1] is: group later given 10 mg kg^-1 orally.

Structures are written as SMILES.

Consider three molecules from patent US11026984B2, “Use of isothiocyanate derivatives as modulators of peripheral and neuropathic pain” (Indena S.P.A., priority 2015, dated 2021).

Regarding `C[C@@H]1O[C@@H](Oc2ccc(CN=C=S)cc2)[C@H](O)[C@H](O)[C@H]1O` [GMG-ITC, 4-(α-L-rhamnosyloxy)-benzyl isothiocyanate], under “10 mg kg^-1 oral, acute”, the “Licking latency, 15 min after treatment” value is recorded as 20.9 ± 1.8^^ s; the “Licking latency, 30 min after treatment” value is reported as 16.0 ± 0.6^ s; the “Licking latency, 45 min after treatment” value is 15.0 ± 1.2^ s; the “Licking latency, 60 min after treatment” value amounted to 13.3 ± 2.1 s. The “Licking latency, Pre-test (48 hrs after last oxaliplatin adm.)” value (“Licking latency, Pre-test” for short) under setting [1] is listed as 10.2 ± 0.4 s.

As for `C[C@@H]1O[C@@H](Oc2ccc(C/C(=N/OS(=O)(=O)O)S[C@@H]3O[C@H](CO)[C@@H](O)[C@H](O)[C@H]3O)cc2)[C@H](O)[C@H](O)[C@H]1O` [GMG, 4-(α-L-rhamnosyloxy)-benzyl glucosinolate], for the setting “10 mg kg^-1 oral, acute”, the “Licking latency, 15 min after treatment” value was 21.1 ± 1.9^^ s; the “Licking latency, 30 min after treatment” value is reported as 16.2 ± 0.7^ s; the “Licking latency, 45 min after treatment” value is listed as 15.1 ± 1.3^ s; the “Licking latency, 60 min after treatment” value was 13.5 ± 2.3 s. For the same molecule, the “Licking latency, Pre-test” value under setting [1] stood at 10.3 ± 0.5 s.

Take `CC(C)C[C@H](CN)CC(=O)O` [pregabalin, reference compound]: where the note is “15 mg kg^-1 s.c.”, the “Licking latency, 15 min after treatment” value was 19.9 ± 1.9^ s; the “Licking latency, 30 min after treatment” value was 16.1 ± 0.6^ s; the “Licking latency, 45 min after treatment” value was 14.9 ± 1.3^ s; the “Licking latency, 60 min after treatment” value was found to be 13.1 ± 2.0 s. The “Licking latency, Pre-test” value (group later given 15 mg kg^-1 s.c.) is 11.0 ± 0.7 s.
